The record followed here is patent US6548531B2, “Method for cancer therapy” (priority 2001, dated 2003).

The nature of data set [1]: Toxicity (body weight, deaths) in tumor-bearing mice. The settings on record: 3 weeks. The protocol: Drug Preparation and Treatment: Suspensions of Compound II were prepared by combining the drug and Pluronic F68 block copolymer at 1:9 or 1:18 ratios of drug to polymer, to prepare suspensions in the concentration range 0-10 mg/ml and 20 mg/ml respectively. […] The final ratio of liquid components (EtOH, Cremophor, and saline) were 5:5:90, respectively. The experiment consisted of 16 groups which contained a vehicle group, 3 groups given Paclitaxel at 7.5, 15 and 30 mg/kg as a single agent, 3 groups given Compound II at 12.5, 25 and 50 mg/kg as a single agent and […] combination groups of all doses of Paclitaxel and Compound II.
All mice were observed and weighed as groups, 7 times per week for three weeks. The average weight of individual mice was calculated by dividing the group weight by the number of animals per group. Percent body weight change was calculated using the formula:
(Current Average Weight−Initial Average Weight/Initial Average Weight) ×100.

Data set [2] relates to MDA-MB-435 breast adenocarcinoma xenograft. Briefly: In vivo antitumor activity, established mammary fat pad xenograft. The settings on record: low doses as single agents, 3 weeks i.p.

Regarding `CC(=O)O[C@H]1C(=O)[C@@]2(C)[C@H]([C@H](OC(=O)c3ccccc3)[C@]3(O)C[C@H](OC(=O)[C@H](O)[C@@H](NC(=O)c4ccccc4)c4ccccc4)C(C)=C1C3(C)C)[C@]1(OC(C)=O)CO[C@@H]1C[C@@H]2O` [Paclitaxel, paclitaxel], the Deaths/Total in data set [1] (Paclitaxel 7.5 mg/kg i.p. q.d. 5x/week) is recorded as 2/10; in data set [1] (Paclitaxel 15 mg/kg i.p. q.d. 5x/week), 0/10; in data set [1] (Paclitaxel 30 mg/kg i.p. q.d. 3x/week), 0/10. Further, the antitumor efficacy result in data set [2] is reported as “only minimally effective”.
`Cn1cc(C2=C(c3cn(C)c4cc([N+](=O)[O-])ccc34)C(=O)NC2=O)c2ccccc21` [Compound II]: in data set [2], the antitumor efficacy entry is “only minimally effective”.
